Legend:
PIK3CG (human) = PIK3CG (human) (UniProt P48736); assay: Assessment of PIK3CG Kinase Activity
[1] = target: PIK3CA (human), P42336 [E545K]; assay: Assessment of PIK3CA(E545K) Kinase Activity
PIK3CB (Human) = PIK3CB (Human) (UniProt P42338); assay: Assessment of PIK3CB Kinase Activity
PIK3CA (human) = PIK3CA (human) (UniProt P42336); assay: Assessment of PIK3CA Kinase Activity
[2] = target: PIK3CA (human), P42336 [H1047R]; assay: Assessment of PIK3CA(H1047R) Kinase Activity
PIK3CA (human), P42336 [H1047R], sequence (P42336 whole entry H1047R, looked up): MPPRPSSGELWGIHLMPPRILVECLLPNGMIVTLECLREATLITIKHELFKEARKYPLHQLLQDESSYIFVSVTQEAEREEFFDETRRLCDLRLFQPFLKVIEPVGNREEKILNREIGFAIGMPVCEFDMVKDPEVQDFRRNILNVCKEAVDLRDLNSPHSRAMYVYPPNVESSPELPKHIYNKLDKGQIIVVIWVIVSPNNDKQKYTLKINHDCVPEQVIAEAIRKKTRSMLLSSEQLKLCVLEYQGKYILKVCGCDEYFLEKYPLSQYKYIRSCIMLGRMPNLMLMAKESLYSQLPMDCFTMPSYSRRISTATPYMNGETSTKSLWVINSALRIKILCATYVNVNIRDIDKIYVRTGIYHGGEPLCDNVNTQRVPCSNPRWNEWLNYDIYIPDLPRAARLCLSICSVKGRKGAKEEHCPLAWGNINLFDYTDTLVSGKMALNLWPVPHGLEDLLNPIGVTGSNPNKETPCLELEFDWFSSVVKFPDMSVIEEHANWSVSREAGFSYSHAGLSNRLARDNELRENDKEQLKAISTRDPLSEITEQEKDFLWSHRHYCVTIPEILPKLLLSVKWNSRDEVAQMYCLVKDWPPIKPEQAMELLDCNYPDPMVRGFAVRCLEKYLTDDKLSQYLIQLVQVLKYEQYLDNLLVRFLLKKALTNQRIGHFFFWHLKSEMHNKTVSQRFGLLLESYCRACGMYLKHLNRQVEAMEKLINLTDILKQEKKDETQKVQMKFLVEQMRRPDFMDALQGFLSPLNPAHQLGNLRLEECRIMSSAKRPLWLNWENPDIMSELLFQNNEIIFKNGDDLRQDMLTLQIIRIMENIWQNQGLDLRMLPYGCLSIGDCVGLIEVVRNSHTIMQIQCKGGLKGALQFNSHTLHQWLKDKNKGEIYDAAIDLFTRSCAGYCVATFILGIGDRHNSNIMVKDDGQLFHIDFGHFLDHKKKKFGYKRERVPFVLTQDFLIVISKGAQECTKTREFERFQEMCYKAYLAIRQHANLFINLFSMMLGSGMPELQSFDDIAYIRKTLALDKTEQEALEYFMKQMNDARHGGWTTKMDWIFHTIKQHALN

PIK3CA (human), P42336 [E545K], sequence (P42336 whole entry E545K, looked up): as the sequence (P42336 whole entry H1047R, looked up) above, with E545K, R1047H counted along it
PIK3CB (Human), sequence (P42338 whole entry, looked up): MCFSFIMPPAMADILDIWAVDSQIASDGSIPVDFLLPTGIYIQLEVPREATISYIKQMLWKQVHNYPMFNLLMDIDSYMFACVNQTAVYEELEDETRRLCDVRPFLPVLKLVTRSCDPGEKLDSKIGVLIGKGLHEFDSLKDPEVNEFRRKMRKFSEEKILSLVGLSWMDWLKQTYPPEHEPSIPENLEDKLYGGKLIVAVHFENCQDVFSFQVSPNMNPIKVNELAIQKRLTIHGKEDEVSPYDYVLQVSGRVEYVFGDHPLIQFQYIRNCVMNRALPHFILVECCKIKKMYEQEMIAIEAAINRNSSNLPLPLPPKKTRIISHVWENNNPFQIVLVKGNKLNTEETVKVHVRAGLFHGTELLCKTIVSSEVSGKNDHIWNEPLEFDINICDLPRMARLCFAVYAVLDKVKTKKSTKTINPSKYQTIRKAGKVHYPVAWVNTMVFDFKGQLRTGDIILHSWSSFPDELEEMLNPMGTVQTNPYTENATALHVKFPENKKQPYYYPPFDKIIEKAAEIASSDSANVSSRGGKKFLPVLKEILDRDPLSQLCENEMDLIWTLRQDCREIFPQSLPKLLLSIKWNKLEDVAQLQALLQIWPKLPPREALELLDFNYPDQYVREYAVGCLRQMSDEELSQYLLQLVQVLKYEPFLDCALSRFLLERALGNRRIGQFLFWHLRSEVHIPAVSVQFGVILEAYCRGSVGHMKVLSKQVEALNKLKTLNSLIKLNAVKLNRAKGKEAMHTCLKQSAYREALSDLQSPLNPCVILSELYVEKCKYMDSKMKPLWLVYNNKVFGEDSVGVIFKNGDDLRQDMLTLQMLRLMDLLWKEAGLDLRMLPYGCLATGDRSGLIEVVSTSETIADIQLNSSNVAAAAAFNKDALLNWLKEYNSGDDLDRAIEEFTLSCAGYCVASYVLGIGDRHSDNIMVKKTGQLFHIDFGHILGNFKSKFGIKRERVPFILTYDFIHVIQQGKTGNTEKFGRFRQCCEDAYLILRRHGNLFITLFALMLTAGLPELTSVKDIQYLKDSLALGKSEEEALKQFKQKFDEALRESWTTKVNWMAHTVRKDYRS
PIK3CA (human), sequence (P42336 whole entry, looked up): as the sequence (P42336 whole entry H1047R, looked up) above, with R1047H counted along it
PIK3CG (human), sequence (P48736 whole entry, looked up): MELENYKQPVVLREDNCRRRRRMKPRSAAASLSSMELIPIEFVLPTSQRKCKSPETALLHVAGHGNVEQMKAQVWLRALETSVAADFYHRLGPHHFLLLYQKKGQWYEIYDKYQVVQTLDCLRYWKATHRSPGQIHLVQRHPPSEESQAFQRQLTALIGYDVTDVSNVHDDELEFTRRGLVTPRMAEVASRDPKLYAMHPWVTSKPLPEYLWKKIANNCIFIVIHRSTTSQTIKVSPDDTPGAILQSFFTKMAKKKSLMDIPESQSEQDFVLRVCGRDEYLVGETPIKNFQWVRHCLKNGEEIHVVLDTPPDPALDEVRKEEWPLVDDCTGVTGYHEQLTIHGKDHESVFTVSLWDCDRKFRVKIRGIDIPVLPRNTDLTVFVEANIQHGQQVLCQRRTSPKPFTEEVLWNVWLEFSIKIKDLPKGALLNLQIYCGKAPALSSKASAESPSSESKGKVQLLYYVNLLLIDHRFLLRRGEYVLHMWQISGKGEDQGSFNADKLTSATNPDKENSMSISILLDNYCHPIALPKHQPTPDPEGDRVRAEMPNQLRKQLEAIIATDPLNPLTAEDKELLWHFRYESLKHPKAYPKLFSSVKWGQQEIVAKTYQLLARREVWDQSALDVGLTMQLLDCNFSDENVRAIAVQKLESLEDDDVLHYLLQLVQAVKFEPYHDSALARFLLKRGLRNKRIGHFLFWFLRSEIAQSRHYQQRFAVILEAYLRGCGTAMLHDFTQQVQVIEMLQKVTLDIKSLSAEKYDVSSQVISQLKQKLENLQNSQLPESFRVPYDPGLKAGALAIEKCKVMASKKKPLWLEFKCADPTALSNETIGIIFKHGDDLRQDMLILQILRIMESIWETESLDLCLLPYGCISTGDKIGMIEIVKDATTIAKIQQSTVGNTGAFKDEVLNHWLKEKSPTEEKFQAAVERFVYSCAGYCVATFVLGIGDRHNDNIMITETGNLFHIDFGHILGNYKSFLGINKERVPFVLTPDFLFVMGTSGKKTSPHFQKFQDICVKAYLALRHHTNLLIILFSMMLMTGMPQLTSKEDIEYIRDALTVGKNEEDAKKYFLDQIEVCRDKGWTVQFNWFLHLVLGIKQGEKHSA

IC50 (PIK3CG (human)) [µM]	IC50 [1] [µM]	IC50 (PIK3CB (Human)) [µM]	IC50 (PIK3CA (human)) [µM]	IC50 [2] [µM]	Compound
< 0.5	< 0.05	0.05 to 0.5	< 0.05	< 0.05	CN(C)C(=O)c1ccc(NC(=O)Nc2ccc(-c3nc(N4CCOCC4)c4ncc(-c5cccc(S(C)(=O)=O)c5)cc4n3)cc2F)cc1
< 0.5	< 0.05	< 0.05	< 0.05	< 0.05	CN(C)C(=O)c1ccc(NC(=O)Nc2ccc(-c3nc(N4CCOCC4)c4ccc(-c5ccco5)cc4n3)cc2)cc1
< 0.5	0.05 to 0.5	0.05 to 0.5	< 0.05	0.05 to 0.5	CN(C)C(=O)c1ccc(NC(=O)Nc2ccc(-c3nc(N4CCOCC4)c4ccc(-c5cccnc5)cc4n3)cc2)c(F)c1
< 0.5	< 0.05	< 0.05	< 0.05	< 0.05	CN(C)C(=O)c1ccc(NC(=O)Nc2ccc(-c3nc(N4CCOCC4)c4cc(F)c(-c5cnn(C)c5)cc4n3)cn2)cc1
< 0.5	< 0.05	< 0.05	< 0.05	< 0.05	CN(C)C(=O)c1ccc(NC(=O)Nc2ccc(-c3nc(N4CCOCC4)c4ncc(-c5cccc(S(C)(=O)=O)c5)cc4n3)cn2)cc1
< 0.5	< 0.05	< 0.05	< 0.05	< 0.05	CN(C)C(=O)c1ccc(NC(=O)Nc2ccc(-c3nc(N4CCOCC4)c4ncc(-c5cccnc5F)cc4n3)cn2)cc1

Source: the Kinase Knowledgebase extract (Sharma et al. 2016)
